Data taken from patent US20250144187A1, “COMBINATION OF HYDROLASES AND ANTI-MICROORGANISM DRUGS AND USES THEREOF” (CENTRE FOR EYE AND VISION RESEARCH LIMITED, priority 2023, published 2025).

Key:
MRSA [1] = test: High-throughput screening of 1953 FDA-approved compounds with human lysozyme; format: cell-based, Staphylococcus aureus; conditions: compound 25 μM + 1 mg/ml lysozyme, 24-hour
Description: (§1) 1) High-throughput screening. According to standard screening method [Zhong. […] Commun. 11, 523 (2020)], 1953 FDA-approved compounds from our drugs library at a fixed concentrations of 25 μM were screened against methicillin-resistant Staphylococcus aureus (MRSA) and Staphylococcus epidermis (a coagulase negative Staphylococci, MRSE), in combination with human lysozyme. Specifically, these compounds were added into bacterial suspensions (1×10^5 CFU/ml, in LB medium) in the absence or presence of 1 mg/ml lysozyme. LB medium without bacteria served as background group. Then, the real-time growth curvet of MRSA were monitored per hour and for 24 hours. Absorbance at 600 am (OD600) of bacterial culture at the time point of 24-hour was also measured. The inhibition ratio (%) was calculated as (ODcontrol−ODsample)/(ODcontrol−ODbackground)×100%. […] Herein, the relative and apparent inhibition ratios indicated the combination effect and potential toxicity of compound, respectively. Synergy effect was defined as the relative inhibition ratio of ≥90%. All assays were performed in triplicate.

MRSE [2] = test: as above; format: cell-based, Staphylococcus epidermis; conditions: compound 25 μM + 1 mg/ml lysozyme, 24-hour
Description: as §1

MRSA [3] = test: High-throughput screening of 4989 compounds with human lysozyme; format: cell-based, Staphylococcus aureus; conditions: for MRSA Combination / MRSA Drug only: OD600 at 24-hour; for MRSA Combination: compound 2.5 μM + 1 mg/ml lysozyme; for MRSA Drug only: compound 2.5 μM without lysozyme; for MRSA Inhibition ratio (%): compound 2.5 μM + 1 mg/ml lysozyme relative to compound only
Description: 1) High-throughput screening. […] Specifically, these compounds were added into bacterial suspensions (1×10^6 CFU/ml) in the […] microliter plate, in which each well contained 50 μl of lysogeny broth (LB) medium with or without 1 mg/ml lysozyme. LB medium in the absence of bacteria served as background group. Then, the real-time growth curves of MRSA were monitored per hour and for 24 hours. Experiments were performed with the biological replicates. Fly analyzing the absorbance 600 nm (OD600) of bacterial culture at the time point of 24-hour, the inhibition ratio (%) was calculated according to (ODcontrol−ODsample)/(ODcontrol−ODbackground)×100%. Here, the relative and apparent inhibition ratios were figured out by using the absorbance of bacterial suspension only containing compound and that without any drug treatment as ODcontrol, respectively. The relative and apparent inhibition ratios indicated the combination effect and potential toxicity of compound in combination effect. Synergy effect was defined as the relative inhibition ratio of ≥90%.

MRSE [4] = test: as above; format: cell-based, Staphylococcus epidermis; conditions: for MRSE Combination / MRSE Drug only: OD600 at 24-hour; for MRSE Combination: compound 2.5 μM + 1 mg/ml lysozyme; for MRSE Drug only: compound 2.5 μM without lysozyme; for MRSE Inhibition ratio (%): compound 2.5 μM + 1 mg/ml lysozyme relative to compound only

Compound	Growth inhibition ratio (mean ± SD, %) MRSA (MRSA [1]) [%]	Growth inhibition ratio (mean ± SD, %) MRSE (MRSE [2]) [%]	MRSA Combination (MRSA [3])	MRSA Drug only (MRSA [3])	MRSA Inhibition ratio (%) (MRSA [3])	MRSE Combination (MRSE [4])	MRSE Drug only (MRSE [4])	MRSE Inhibition ratio (%) (MRSE [4])
C[C@@H](O)[C@H]1C(=O)N2C(C(=O)O)=C(S[C@@H]3CN[C@H](CNS(N)(=O)=O)C3)[C@H](C)[C@H]12 [Doripenem Hydrate]	82.4 ± 5.63	11.18 ± 6.16	–	–	–	–	–	–
CC1=C(C(=O)O)N2C(=O)[C@@H](NC(=O)[C@H](N)C3=CCC=CC3)[C@H]2SC1 [Cefradine]	48.66 ± 13.26	33.52 ± 23.07	–	–	–	–	–	–
CO/N=C(\C(=O)N[C@@H]1C(=O)N2C(C(=O)O)=C(Cn3ccc(=N)n3CCO)CS[C@H]12)c1csc(N)n1.O=S(=O)(O)O [Cefoselis Sulfate]	40.55 ± 6.2	51.56 ± 10.39	–	–	–	–	–	–
N#C/C(=C1/SC[C@@H](c2ccc(Cl)cc2Cl)S1)n1ccnc1 [Luliconazole]	−9.69 ± 5.58	22.39 ± 10.76	–	–	–	–	–	–
CC1(C)S[C@@H]2[C@H](NC(=O)[C@H](N)c3ccccc3)C(=O)N2[C@H]1C(=O)OCOC(=O)[C@@H]1N2C(=O)C[C@H]2S(=O)(=O)C1(C)C [Sultamicillin]	58.05 ± 16.75	45.94 ± 13.49	–	–	–	–	–	–
COC(=O)[C@]12CCC(C)(C)C[C@H]1[C@H]1C(=O)C=C3[C@@]4(C)C=C(C#N)C(=O)C(C)(C)[C@@H]4CC[C@@]3(C)[C@]1(C)CC2 [Bardoxolone Methyl]	29.95 ± 40.66	81.67 ± 1.61	–	–	–	–	–	–
CO[C@H]1/C=C/O[C@@]2(C)Oc3c(C)c(O)c4c(c3C2=O)C(=O)C=C(NC(=O)/C(C)=C\C=C\[C@H](C)[C@H](O)[C@@H](C)[C@@H](O)[C@@H](C)[C@H](OC(C)=O)[C@@H]1C)C4=O [Rifamycin S]	–	–	0.074	0.1545	77.78	0.0967	0.5935	91.58
[H]/N=C(\N/C(=N/[H])NCCCCCCNC(=N)NC(=N)Nc1ccc(Cl)cc1)Nc1ccc(Cl)cc1 [Chlorhexidine 2HCl]	94.16 ± 0.25	12.3 ± 18.27	–	–	–	–	–	–
SCP1-IN-1	–	–	0.0766	0.1762	79.55	0.0698	0.1091	67.64
CC[C@H]1OC(=O)C[C@@H](O)[C@H](C)[C@@H](O[C@@H]2O[C@H](C)[C@@H](O)[C@H](N(C)C)[C@H]2O)[C@@H](CCN2C[C@H](C)C[C@H](C)C2)C[C@@H](C)C(=O)/C=C/C(C)=C/[C@@H]1CO[C@@H]1O[C@H](C)[C@@H](O)[C@@H](OC)[C@H]1OC [Tilmicosin]	91.59 ± 0.63	4.91 ± 8.1	–	–	–	–	–	–
CC/C=C(\C(=O)N[C@@H]1C(=O)N2C(C(=O)OCOC(=O)C(C)(C)C)=C(COC(N)=O)CS[C@H]12)c1csc(N)n1.Cl [Cefcapene Pivoxil Hydrochloride]	18.64 ± 7.49	3.23 ± 3.04	–	–	–	–	–	–
CC(C)(O/N=C(\C(=O)N[C@@H]1C(=O)N2C(C(=O)[O-])=C(C[n+]3ccccc3)CS[C@H]12)c1csc(N)n1)C(=O)O [Ceftazidime Pentahydrate]	45.07 ± 6.86	34.84 ± 3.23	–	–	–	–	–	–
CCN1CCN(C(=O)N[C@@H](C(=O)N[C@@H]2C(=O)N3C(C(=O)O)=C(CSc4nnnn4C)CS[C@H]23)c2ccc(O)cc2)C(=O)C1=O [Cefoperazone]	71.74 ± 5.27	−16.2 ± 8.93	–	–	–	–	–	–
C#Cc1cccc(Nc2nc3ccccc3nc2Nc2cccc(C#C)c2)c1.Cl.Cl [TD52 (dihydrochloride)]	–	–	0.0926	0.6512	93.07	0.1057	0.402	–
CCCCCCNC(=O)n1cc(F)c(=O)[nH]c1=O [Carmofur]	82.5 ± 7.73	78.06 ± 11.38	–	–	–	–	–	–
CC1(C)S[C@@H]2[C@H](NC(=O)[C@H](NC(=O)N3CCN(S(C)(=O)=O)C3=O)c3ccccc3)C(=O)N2[C@H]1C(=O)O [Mezlocillin Sodium]	90.46 ± 1.59	6.93 ± 8.22	–	–	–	–	–	–
CNC[C@H](O)[C@@H](O)[C@H](O)[C@H](O)CO.Nc1nc(-n2cc(C(=O)O)c(=O)c3cc(F)c(N4CC(O)C4)c(Cl)c32)c(F)cc1F [Delafloxacin (meglumine)]	–	–	0.0629	0.177	90.56	0.0639	0.1374	–
CC(=O)c1c(O)cc(O)c(C(C)=O)c1O [2,4-Diacetylphloroglucinol]	–	–	0.0588	0.2097	95.09	0.0686	0.09	54.87
CCOC(=O)c1ccc(O)c(O)c1 [Ethyl 3,4-dihydroxybenzoate]	–	–	0.064	0.5805	97.54	0.0703	0.6328	96.68
C[C@@H](O)[C@H]1C(=O)N2C(C(=O)O)=C(S[C@@H]3CN[C@H](C(=O)N(C)C)C3)[C@H](C)[C@H]12 [Meropenem Trihydrate]	48.19 ± 11.14	20.45 ± 65.79	–	–	–	–	–	–
CCC(=O)c1ccc(O)cc1 [Paroxypropione]	–	–	0.0655	0.3624	95.34	0.0445	0.5254	101.37
CC1(C)S[C@@H]2[C@H](NC(=O)Cc3ccccc3)C(=O)N2[C@H]1C(=O)O [Benzylpenicillin potassium]	48.39 ± 51.84	3.07 ± 4.93	–	–	–	–	–	–
Sertaconazole (nitrate)	–	–	0.2603	0.593	61.38	0.079	0.4977	93.73
CO/N=C(\C(=O)N[C@@H]1C(=O)N2C(C(=O)O)=C(CSc3nc(=O)c(=O)[nH]n3C)CS[C@H]12)c1csc(N)n1 [Ceftriaxone Sodium]	8.83 ± 1.45	34.56 ± 35.01	–	–	–	–	–	–
CO[C@@]1(NC(=O)CSCC#N)C(=O)N2C(C(=O)O)=C(CSc3nnnn3C)CS[C@@H]21 [Cefmetazole sodium]	58.25 ± 13.23	6 ± 29.05	–	–	–	–	–	–
CO[C@@]12[C@H](COC(N)=O)C3=C(C(=O)C(C)=C(N)C3=O)N1C[C@@H]1N[C@@H]12 [Mitomycin C]	66.02 ± 45.26	39.12 ± 43.57	–	–	–	–	–	–
